Test results taken from US11021518B2, “Theta defensin analogs” (The University of Southern California, priority 2019, dated 2021).
pIC50: −log10 of the molar value. Bridge positions count the residues as written; N and C are the ends. Peptide text beside a SMILES is read from it.

Legend:
[1] = target: TACE (Homo sapiens, UniProt P78536); assay: inhibition of TACE; format: biochemical
[2] = system: carbapenem resistant strain of Klebsiella pneumoniae (KPC+-Kp BAA-1705 (ATCC)); assay: murine carbapenem resistant Klebsiella pneumoniae sepsis model, survival; format: in vivo, BALB/c mice; conditions: for survival (FIG. 3 right panel): 0.5 mg/kg i.p. 1 hour post infection; for Kp sepsis % survival at 5 mg/kg: BALB/c mice, i.p. infection, peptide 5 mg/kg i.p. 1 hour post infection; for survival (FIG. 3 left panel): 5 mg/kg i.p. 1 hour post infection, sham controls 25% survival; for therapeutic effect on survival (FIG. 4): 1 hour post infection
Protocol: BALB/c mice were infected interperitoneally with 3-5×10^8 CFU of a carbapenem resistant strain of Klebsiella pneumoniae (KPC+-Kp BAA-1705 (ATCC)) and treated with peptide one hour post infection. […] P-values were determined by Fisher's exact test. The therapeutic peptides were provided intraperitoneally 1 hour after induction of sepsis.
BALB/c mice were infected i.p. with KPC+-Kp BAA-1705 (ATCC) and treated with a single dose of MTD12813, at the levels indicated, 1 hour post infection. The significance (P-values determined by Fisher's exact test) of the therapeutic effect for each dose is shown. […] It should be appreciated that 0.5 mg/kg is the lowest dose tested, and that Inventors believe that MTD12813 is effective at still lower doses, for example down to 0.25 mg/kg, […], or 10 μg/kg.

[3] = system: TNF-α (TNF) release; assay: suppression of TNF-α (TNF) release; format: cell-based

Sequence of TACE (P78536 215-824): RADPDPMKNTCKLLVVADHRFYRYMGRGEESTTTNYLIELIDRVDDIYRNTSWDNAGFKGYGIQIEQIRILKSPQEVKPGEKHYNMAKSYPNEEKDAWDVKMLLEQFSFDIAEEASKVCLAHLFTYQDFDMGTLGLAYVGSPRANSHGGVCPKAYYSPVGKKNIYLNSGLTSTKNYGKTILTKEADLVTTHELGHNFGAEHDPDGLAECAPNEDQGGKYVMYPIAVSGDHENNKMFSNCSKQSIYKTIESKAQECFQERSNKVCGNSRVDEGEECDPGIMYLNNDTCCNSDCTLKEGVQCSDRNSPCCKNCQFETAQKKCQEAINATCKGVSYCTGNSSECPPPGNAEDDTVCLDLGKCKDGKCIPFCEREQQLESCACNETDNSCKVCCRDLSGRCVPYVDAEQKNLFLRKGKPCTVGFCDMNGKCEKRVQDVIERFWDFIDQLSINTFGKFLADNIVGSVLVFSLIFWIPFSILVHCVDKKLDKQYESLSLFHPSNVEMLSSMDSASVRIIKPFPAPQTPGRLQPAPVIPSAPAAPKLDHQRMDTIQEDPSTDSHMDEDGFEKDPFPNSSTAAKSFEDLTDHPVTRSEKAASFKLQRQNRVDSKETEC

Question: Which results are given for `CC[C@H](C)[C@@H]1NC(=O)[C@@H]2CSSC[C@H](NC(=O)[C@H](CC(C)C)NC(=O)[C@@H]3CSSC[C@H](NC1=O)C(=O)N[C@@H](CCCNC(=N)N)C(=O)N[C@@H](CCCNC(=N)N)C(=O)N[C@@H](CCCNC(=N)N)C(=O)N[C@@H](Cc1ccccc1)C(=O)N3)C(=O)N[C@@H](CCCNC(=N)N)C(=O)N[C@@H](CCCNC(=N)N)C(=O)NCC(=O)N[C@@H](C(C)C)C(=O)N2` [MTD1280] (cyclo(CICRRRFCLCRRGV); disulfide 1-10, 3-8)?
Answer: pIC50 [1]: 5.89; survival (FIG. 3 right panel) [2]: essentially identical to that of the sham control; Kp sepsis % survival at 5 mg/kg [2]: 80-100%; TNF % suppression at 5 mg/kg [3]: 98.7%

Question: With `CC[C@H](C)[C@@H]1NC(=O)[C@@H]2CSSC[C@H](NC(=O)[C@H]([C@@H](C)CC)NC(=O)[C@@H]3CSSC[C@H](NC1=O)C(=O)N[C@@H](CCCNC(=N)N)C(=O)N[C@@H](CCCNC(=N)N)C(=O)NCC(=O)N[C@@H](C(C)C)C(=O)N3)C(=O)N[C@@H](CCCNC(=N)N)C(=O)N[C@@H](CCCNC(=N)N)C(=O)NCC(=O)N[C@@H](C(C)C)C(=O)N2` [MTD1281] (cyclo(CICRRGVCICRRGV); disulfide 1-10, 3-8) as the molecule, how does the pIC50 [1] read?
Answer: 6.46

Question: And the “Kp sepsis % survival at 5 mg/kg” value [2]?
Answer: 40%

Question: What about the “TNF % suppression at 5 mg/kg” value [3] of the same molecule?
Answer: 83.0%

Question: `CC(C)C[C@@H]1NC(=O)[C@@H]2CSSC[C@H](NC(=O)[C@H](CC(C)C)NC(=O)[C@@H]3CSSC[C@H](NC1=O)C(=O)N[C@@H](CCCNC(=N)N)C(=O)N[C@@H](CCCNC(=N)N)C(=O)NCC(=O)N[C@@H](C(C)C)C(=O)N3)C(=O)N[C@@H](CCCNC(=N)N)C(=O)N[C@@H](CCCNC(=N)N)C(=O)NCC(=O)N[C@@H](C(C)C)C(=O)N2` [MTD1284] (cyclo(CLCRRGVCLCRRGV); disulfide 1-10, 3-8) was tested. Which pIC50 [1] did it give?
Answer: 6.14

Question: And the “Kp sepsis % survival at 5 mg/kg” value [2]?
Answer: 53.3%

Question: And the “TNF % suppression at 5 mg/kg” value [3]?
Answer: 78.8%

Question: `CC[C@H](C)[C@@H]1NC(=O)[C@@H]2CSSC[C@H](NC(=O)[C@H](CC(C)C)NC(=O)[C@@H]3CSSC[C@H](NC1=O)C(=O)N[C@@H](CCCNC(=N)N)C(=O)N[C@@H](CCCNC(=N)N)C(=O)N[C@@H](CCCNC(=N)N)C(=O)N[C@@H](Cc1ccccc1)C(=O)N3)C(=O)N[C@@H](CCCNC(=N)N)C(=O)N[C@@H](CCCNC(=N)N)C(=O)NCC(=O)N[C@@H](C)C(=O)N2` [MTD1286] (cyclo(ACICRRRFCLCRRG); disulfide 2-11, 4-9) was tested. Which pIC50 [1] did it give?
Answer: 6.52

Question: With `CC(C)[C@@H]1NC(=O)CNC(=O)[C@H](CCCNC(=N)N)NC(=O)[C@H](CCCNC(=N)N)NC(=O)[C@@H]2CSSC[C@H](NC1=O)C(=O)N[C@@H](C)C(=O)N[C@H]1CSSC[C@H](NC(=O)[C@H](Cc3ccccc3)NC(=O)[C@H](CCCNC(=N)N)NC(=O)[C@H](CCCNC(=N)N)NC(=O)[C@H](CCCNC(=N)N)NC1=O)C(=O)N[C@@H](C)C(=O)N2` [MTD1289] (cyclo(ACRRGVCACRRRFC); disulfide 2-7, 9-14) as the molecule, how does the pIC50 [1] read?
Answer: 5.78

Question: `CC(C)C[C@@H]1NC(=O)[C@@H]2CSSC[C@H](NC(=O)[C@H](CO)NC(=O)[C@@H]3CSSC[C@H](NC1=O)C(=O)N[C@@H](CCCNC(=N)N)C(=O)N[C@@H](CCCNC(=N)N)C(=O)NCC(=O)N[C@@H](C(C)C)C(=O)N3)C(=O)N[C@@H](CCCNC(=N)N)C(=O)N[C@@H](CCCNC(=N)N)C(=O)N[C@@H](CCCNC(=N)N)C(=O)N[C@@H](Cc1ccccc1)C(=O)N2` [MTD12810] (cyclo(CLCRRGVCSCRRRF); disulfide 1-10, 3-8) was tested. Which pIC50 [1] did it give?
Answer: 5.81

Question: And the “Kp sepsis % survival at 5 mg/kg” value [2]?
Answer: 0%

Question: And the “TNF % suppression at 5 mg/kg” value [3]?
Answer: 2.0%

Question: Which results are given for `CC[C@H](C)[C@@H]1NC(=O)[C@@H]2CSSC[C@H](NC(=O)[C@H](CO)NC(=O)[C@@H]3CSSC[C@H](NC1=O)C(=O)N[C@@H](CCCNC(=N)N)C(=O)N[C@@H](CCCNC(=N)N)C(=O)NCC(=O)N[C@@H](C(C)C)C(=O)N3)C(=O)N[C@@H](CCCNC(=N)N)C(=O)N[C@@H](CCCNC(=N)N)C(=O)N[C@@H](CCCNC(=N)N)C(=O)N[C@@H](Cc1ccccc1)C(=O)N2` [MTD12811] (cyclo(CICRRGVCSCRRRF); disulfide 1-10, 3-8)?
Answer: pIC50 [1]: 5.72; Kp sepsis % survival at 5 mg/kg [2]: 30%; TNF % suppression at 5 mg/kg [3]: 37.5%

Question: Which results are given for `CC[C@H](C)[C@@H]1NC(=O)[C@@H]2CSSC[C@H](NC(=O)[C@H](CO)NC(=O)[C@@H]3CSSC[C@H](NC1=O)C(=O)N[C@@H](CCCNC(=N)N)C(=O)N[C@@H](CCCNC(=N)N)C(=O)N[C@@H](CCCNC(=N)N)C(=O)N[C@@H](Cc1ccccc1)C(=O)N3)C(=O)N[C@@H](CCCNC(=N)N)C(=O)N[C@@H](CCCNC(=N)N)C(=O)NCC(=O)N[C@@H](C(C)C)C(=O)N2` [MTD12812] (cyclo(CICRRRFCSCRRGV); disulfide 1-10, 3-8)?
Answer: pIC50 [1]: 5.96; Kp sepsis % survival at 5 mg/kg [2]: 20%; TNF % suppression at 5 mg/kg [3]: 14.9%

Question: `CC[C@H](C)[C@@H]1NC(=O)[C@@H]2CSSC[C@H](NC(=O)[C@H]([C@@H](C)CC)NC(=O)[C@@H]3CSSC[C@H](NC1=O)C(=O)NCC(=O)N[C@@H](CCCNC(=N)N)C(=O)NCC(=O)N[C@@H](C(C)C)C(=O)N3)C(=O)N[C@@H](CCCNC(=N)N)C(=O)N[C@@H](CCCNC(=N)N)C(=O)N[C@@H](CCCNC(=N)N)C(=O)N[C@@H](C(C)C)C(=O)N2` [MTD12813] (cyclo(CGRGVCICRRRVCI); disulfide 1-6, 8-13) was tested. Which pIC50 [1] did it give?
Answer: 6.26

Question: What about the “survival (FIG. 3 right panel)” value [2] of the same molecule?
Answer: ~90%

Question: And the “survival (FIG. 3 left panel)” value [2]?
Answer: complete protection

Question: And the “Kp sepsis % survival at 5 mg/kg” value [2]?
Answer: 100%

Question: What about the “therapeutic effect on survival (FIG. 4)” value ([2]; single dose 0.5 mg/kg, lowest dose tested) of the same molecule?
Answer: highly effective

Question: And the “therapeutic effect on survival (FIG. 4)” value ([2]; single dose 1.25 mg/kg)?
Answer: as effective as 5 mg/kg

Question: What about the “TNF % suppression at 5 mg/kg” value [3] of the same molecule?
Answer: 95.6%

Question: `CC(C)[C@@H]1NC(=O)CNC(=O)[C@H](CCCNC(=N)N)NC(=O)[C@H](CCCNC(=N)N)NC(=O)[C@@H]2CSSC[C@H](NC1=O)C(=O)N[C@@H](C)C(=O)N[C@H]1CSSC[C@H](NC(=O)[C@H](Cc3ccccc3)NC(=O)[C@H](CCCNC(=N)N)NC(=O)[C@H](CCCNC(=N)N)NC(=O)[C@H](C)NC1=O)C(=O)N[C@@H](C)C(=O)N2` [MTD12815] (cyclo(ACARRFCACRRGVC); disulfide 2-7, 9-14) was tested. Which pIC50 [1] did it give?
Answer: 5.93

Question: For “RTD-1: naturally occurring rhesus monkey θ-defensin, cyclic octadecapeptide with 3 disulfide bonds (cyclo(GFCRCLCRRGVCRCICTR); disulfide (positions not given here); not fully specified (bridges); also: three disulfide bonds, pairing not given here; listed as Macaca mulatta) [reference compound]”, which “survival (FIG. 3 left panel)” value [2] is on record?
Answer: 70%
